# Key:
# [1] = tested on: luciferase gene-transfected human pancreatic cancer cell line; assay: In vitro drug sensitivity of pancreatic cancer organoid versus plane-cultured cells (luciferase activity); type: cell-based
# Protocol: In each graph, the ordinate depicts the amount of luciferase activity of the pancreatic cancer cells, and the abscissa depicts an anti-cancer drug (gemcitabine, nab-paclitaxel, or 5-FU) concentration in a medium. […] Among the pancreatic cancer organoids, cancer organoids with rich-stroma show lower sensitivity to anticancer drugs.
# (§1) Each pre-existing human pancreatic cancer cell line was inoculated at 5×10^3 cells/well on a 96-well plate, and gemcitabine (10^−12 to 10^−3 M) was added thereto 24 hours later. Nuclear staining was performed 72 hours after the gemcitabine addition. A cell number was measured using IN Cell Analyzer 2000, and an IC50 value was calculated. In order to specifically detect cancer cells within an organoid and calculate a cancer cell number, luciferase gene-transfected cancer cells were established and used in analysis. A cancer organoid was formed from the luciferase gene-transfected cancer cells, and luminescence was measured in the presence of a luminescent substrate (e.g., Luciferase Assay System from Promega Corp.) to evaluate the number of cancer cells present.
# On the other hand, for the large-scale preparation of pancreatic cancer cell organoids having a uniform size, human pancreatic cancer cells, HUVECs, and hMSCs were cocultured using a three-dimensional culture vessel (e.g., ELPLASIA plate from Kuraray Co., Ltd.) to reconstitute a human pancreatic cancer cell line organoid. The pancreatic cancer cells of each line were inoculated at 1×10^4 cells on each well of a 96-well plate which was also inoculated with arbitrary numbers of HUVECs and hMSCs to reconstitute a cancer organoid. The mixing ratio of the cancer cells, HUVECs, and hMSCs was set to 10:0:0, 10:7:1, 10:7:20, 10:7:0, or 10:0:20.
# In order to evaluate the drug sensitivity of cancer cells with high accuracy, an approach for quantitatively evaluating only the number of cancer cells within a cancer organoid was studied (FIG. 14). Luciferase gene-transfected cancer cells (CFPAC-1, PANC-1, or CAPAN-2; typically, CFPAC-1) were established, and a cancer organoid was reconstituted. Then, a luminescent substrate was added thereto, and the luminescence intensity of each well was measured using a luminescence plate reader. The luciferase gene-transfected cancer cells were inoculated at various cell numbers onto a multi-well plate, followed by luciferase assay. As a result, the luminescence intensity was confirmed to be proportional to the cell number (FIG. 15). […]
# A pancreatic cancer organoid was reconstituted from luciferase gene-transfected pancreatic cancer cells and stromal cells and evaluated for its sensitivity for a pancreatic cancer therapeutic (anti-cancer drug) (FIG. 17). […]
# [2] = tested on: pancreatic cancer organoid-derived xenograft; assay: Immunostaining of residual xenograft tissue after gemcitabine administration; type: in vivo, immunodeficient mice
# Protocol: A paraffin section was deparaffinized, then dipped in a citrate buffer, and activated at 121° C. for 20 minutes. After washing with PBS containing 0.05% Tween 20 (PBST) for 5 minutes three times, a buffer for blocking (Dako Japan Co., Ltd.) was added to the section, and blocking reaction was performed at room temperature for 1 hour. Next, a primary antibody solution was added thereto and reacted overnight at 4° C. After the primary antibody (anti-EpCAM antibody, anti-αSMA antibody, anti-cytokeratin 7 (CK7) antibody, anti-CD31 antibody, or anti-laminin antibody) reaction, the section was washed with PBST for 5 minutes three times. A secondary antibody solution diluted with a buffer solution was added thereto and reacted at room temperature for 1 hour in the dark. After the secondary antibody reaction, the section was washed with PBST for 5 minutes three times and mounted on a glass slide using a mounting agent containing a DAPI staining solution (Wako Pure Chemical Industries, Ltd.). A pre-existing human pancreatic cancer cell line was transplanted at 2×10^5 cells to immunodeficient mice. After a xenograft reached 100 mm^3, gemcitabine was administered thereto once every three days. […] A pancreatic cancer cell line was transplanted to immunodeficient mice. Then, gemcitabine administration was started from the point in time when a xenograft reached 100 mm^3. […]
# [3] = tested on: EGFP gene-transfected cancer cells (typically, CFPAC-1) organoid; assay: Residual cells in cancer organoid cultured with anti-cancer drug; type: cell-based, human; details: 1 uM, 72 hours
# Protocol: Residual cancer cells expressing GFP and mesenchymal cells expressing αSMA are observed even after anti-cancer drug (gemcitabine) administration. Increase in positive ratio of a cancer stem cell marker Sox9 was confirmed in the residual cancer cells. The properties of cancer cells remaining after anti-cancer drug addition and stromal cells within a cancer organoid were evaluated. EGFP gene-transfected cancer cells (typically, CFPAC-1) were established, and a cancer organoid was reconstituted (the cancer cell:HUVEC:hMSC ratio is, for example, 10:7:10 to 10:7:20). Then, the cancer organoid was cultured for 72 hours in a medium containing 1 uM gemcitabine.
# [4] = tested on: pre-existing human pancreatic cancer cell line (CFPAC-1) organoid-derived xenograft; assay: Drug sensitivity of human pancreatic cancer organoid-derived xenograft (tumor volume); type: in vivo, NOD/Scid mice; details: for xenograft regression: e.g. 10 mg/kg
# Protocol: After transplantation of the human pancreatic cancer cells or the human pancreatic cancer cell organoid to immunodeficient mice (NOD/Scid), gemcitabine was administered thereto at 3-day intervals from the point in time when the tumor size exceeded 100 mm3. […] A xenograft was prepared by the subcutaneous transplantation of a human pancreatic cancer cell organoid. Then, the intraperitoneal administration of gemcitabine was started from the point in time when the volume of the xenograft exceeded 100 mm^3. The dose concentration of gemcitabine was set to 0 mg/kg, 5 mg/kg, or 10 mg/kg, and the administration frequency and period were set to once every three days for 3 weeks. The volume of the xenograft was measured at appropriate times. […] The in vivo drug sensitivity of a xenograft reconstituted after transplantation of each organoid was evaluated using a typical pancreatic cancer therapeutic Gemzar (gemcitabine: GEM). A pre-existing human pancreatic cancer cell line organoid prepared by the three-dimensional coculture of a pre-existing human pancreatic cancer cell line, HUVECs, and hMSCs was subcutaneously transplanted to NOD/Scid mice. Then, the administration of GEM (e.g., 10 mg/kg) was started from the point in time when the tumor volume exceeded 100 mm^3. A non-GEM-administration group (0 mg/kg) given only physiological saline was set as a control group. GEM was administered once every three days for 30 days with reference made to a treatment regimen for human pancreatic cancer. A xenograft was recovered at GEM administration day 30 and analyzed histologically.
# [5] = tested on: human lung cancer cell line (A549 cells); assay: In vitro drug sensitivity of human lung cancer cell line organoid (luciferase activity); type: cell-based
# Protocol: FIG. 29 A lung cancer organoid prepared three-dimensionally using a human lung cancer cell line (A549 cells) expressing luciferase gene and EGFP, as well as HUVECs and hMSCs, and a three-dimensional aggregate composed of only pancreatic cancer cells were evaluated for their in vitro drug sensitivity. The left diagrams show a fluorescence phase-contrast microscope image of the lung cancer organoid. In the graph of the right diagram, the ordinate depicts the amount of luciferase activity of the lung cancer cells, and the abscissa depicts an anti-cancer drug (gemcitabine) concentration in the medium. […] A pre-existing human lung cancer cell line (A549) was introduced from ATCC. In the present study, this cell line was introduced and then used at a passage number of 10 or less in experiments. The pre-existing human lung cancer cell line was transfected with luciferase gene in advance. The human lung cancer cell line, HUVECs, and hMSCs were inoculated onto a three-dimensional culture vessel ([…] plate from Kuraray Co., Ltd.) to reconstitute a human lung cancer cell line organoid. The human lung cancer cell line was inoculated at 3×10^3 cells on each well of a 96-well plate which was also inoculated with arbitrary numbers of HUVECs and hMSCs to reconstitute a cancer organoid. The mixing ratio of the cancer cells, HUVECs, and hMSCs was set to 10:0:0, 10:7:1 (Low hMSC), or 10:7:20 (High hMSC). A lung cancer organoid prepared three-dimensionally using a luciferase gene and EGFP expressing human lung cancer cell line (A549 cells), HUVECs, and hMSCs, and a three-dimensional aggregate composed of only pancreatic cancer cells were evaluated for their in vitro drug sensitivity. The left diagrams show a fluorescence phase-contrast microscope image of the lung cancer organoid. In the graph of the right diagram, the ordinate depicts the amount of luciferase activity of the lung cancer cells, and the abscissa depicts an anti-cancer drug (gemcitabine) concentration in a medium.
# [6] = tested on: primary pancreatic cancer organoid xenograft; assay: In vivo drug sensitivity of primary human pancreatic cancer organoid xenograft (tumor size); design: species or system immunodeficient mice; details: primary organoid transplantation group versus cyst transplantation group; once every three days
# Protocol: FIG. 28 A primary cancer organoid was prepared from a primary cancer cell line, and a xenograft was reconstituted in immunodeficient mice in vivo. […] A primary pancreatic cancer organoid (pancreatic cancer cells: 2×10^5 cells) was reconstituted in vitro and then transplanted to immunodeficient mice. […] Gemcitabine was administered thereto once every three days from the point in time when a xenograft reached 100 mm^3.
# CFPAC-1 xenograft = assay: In vivo drug sensitivity of subcutaneous cell line xenograft; design: species or system NOD/Scid mice; details: 100 mg/kg intraperitoneal
# Protocol: (§2) 8000 cells of human pancreatic cancer cell line were seeded in each well of a 96-well plate, and gemcitabine was added at 24 hours. At 72 hours, the number of viable cells was measured and summarized in a graph. The pancreatic cancer cells of each line were subcutaneously transplanted to NOD/Scid mice. Gemcitabine was intraperitoneally administered at 100 mg/kg from the point in time when the tumor volume reached 100 mm^3. Change in tumor size after the gemcitabine administration was evaluated.
# (§3) Each pre-existing human pancreatic cancer cell line was subcutaneously transplanted at 1×10^6 cells to each of 4- to 10-week old female immunodeficient mice (NOD/Scid mice) to prepare a xenograft. The number of xenografts formed and the volume of each xenograft were measured over time. The volume was calculated according to (minor axis×minor axis×major axis/2) mm^3. The intraperitoneal administration of gemcitabine was started from the point in time when the volume of the xenograft formed exceeded 100 mm^3. The dose concentration of gemcitabine was set to 100 mg/kg, 0 mg/kg, 5 mg/kg, or 10 mg/kg, and gemcitabine was administered once every three days for 3 weeks. Then, the xenograft was resected.
# (§4) The in vitro drug sensitivity of a pre-existing human pancreatic cancer cell line CFPAC-1, PANC-1, or SW1990 was evaluated. 10^−12 to 10^−3M GEM was added to the cells cultured for 24 hours, and IC50 was calculated from the number of cells surviving 72 hours after the addition.
# PANC-1 xenograft = assay: as above; design: species or system NOD/Scid mice; details: 100 mg/kg intraperitoneal
# Protocol: as §2, §3, §4
# SW1990 xenograft = assay: as above; design: species or system NOD/Scid mice; details: 100 mg/kg intraperitoneal
# Protocol: as §2, §3, §4
# [7] = tested on: CFPAC-1-derived cancer organoid xenograft; assay: Tumor size after discontinuation of gemcitabine administration (recurrence); type: in vivo; details: 30 mg/kg for 30 days
# Protocol: Whether a xenograft reconstituted from a cancer organoid could reproduce the recurrence of pancreatic cancer was studied. […] The right diagrams show a macro photograph of the xenograft in each period. […] After cancer organoid (CFPAC-1-derived) transplantation, gemcitabine was administered (30 mg/kg) for 30 days. Then, the gemcitabine administration was discontinued.
# PANC-1 = assay: In vitro drug sensitivity of pre-existing human pancreatic cancer cell line (surviving cell number, IC50); type: cell-based; details: cells surviving 72 hours after addition
# Protocol: as §2, with “evaluated. The discrepancy between the in vitro anti-cancer drug sensitivity and the in vivo anti-cancer drug sensitivity was confirmed.” for “evaluated.”
# as §1
# (§5) The in vitro drug sensitivity of a pre-existing human pancreatic cancer cell line CFPAC-1, PANC-1, or SW1990 was evaluated. 10^−12 to 10^−3M GEM was added to the cells cultured for 24 hours, and IC50 was calculated from the number of cells surviving 72 hours after the addition. As a result, IC50 of CFPAC-1, PANC-1, or SW1990 was 0.03 μM, 0.7 μM, or 0.2 μM, respectively (upper panels of FIG. 1). On the other hand, the cancer cells were subcutaneously transplanted to NOD/Scid mice, and the xenograft formed was evaluated for its in vivo drug sensitivity by the administration of GEM at 100 mg/kg.
# CFPAC-1 = assay: as above; type: cell-based; details: cells surviving 72 hours after addition
# Protocol: as §2, with “evaluated. The discrepancy between the in vitro anti-cancer drug sensitivity and the in vivo anti-cancer drug sensitivity was confirmed.” for “evaluated.”
# as §1, §5
# SW1990 = assay: as above; type: cell-based; details: cells surviving 72 hours after addition
# Protocol: as §2, with “evaluated. The discrepancy between the in vitro anti-cancer drug sensitivity and the in vivo anti-cancer drug sensitivity was confirmed.” for “evaluated.”
# as §1, §5
# [8] = tested on: primary human pancreatic cancer cells; assay: In vitro gemcitabine sensitivity of primary human pancreatic cancer organoid (luciferase); type: cell-based; details: primary pancreatic cancer organoid versus pancreatic cancer cyst; 72 hours
# Protocol: Pancreatic cancer cells transfected with luciferase gene were used for experiments. […] The three-dimensional coculture method abides by the method for a pancreatic cancer organoid from a pancreatic cancer cell line. […] Luciferase gene-transfected primary human pancreatic cancer cells were established, and a primary pancreatic cancer organoid (pancreatic cancer cells: 2×10^4 cells) was reconstituted in vitro and then cultured for 72 hours in the presence of gemcitabine. Then, a luminescent substrate was added thereto, and the luminescence intensity of each organoid was measured using a luminescence plate reader and analyzed.
# [9] = tested on: primary pancreatic cancer organoid; assay: Drug sensitivity of primary human pancreatic cancer organoid versus patient prognosis (luciferase activity); type: cell-based; details: organoid from patient having postoperative recurrence; 72 hours
# Protocol: Pancreatic cancer cells were separated from a surgically resected preparation of each pancreatic cancer patient and expanded culture was performed by the cyst culture method to obtain primary human pancreatic cancer cells. […] The obtained primary human pancreatic cancer cells were three-dimensionally cocultured with stromal cells (vascular endothelial cells (HUVECs, etc.) and mesenchymal cells (hMSCs, etc.)) to reconstitute a primary pancreatic cancer organoid. Its drug sensitivity was evaluated. The mixing ratio of these cells at the time of primary pancreatic cancer organoid preparation was 10:7:20. The number of specimens was 2. Primary pancreatic cancer cells were separated from a surgically resected specimen of each pancreatic cancer patient (with or without postoperative recurrence), subjected to expanded culture, and then transfected with luciferase gene. Then, these cancer cells were three-dimensionally cocultured with stromal cells to reconstitute a primary pancreatic cancer organoid. The reconstituted human pancreatic cancer organoid was cultured for 72 hours in the presence of gemcitabine at respective concentrations, followed by luciferase activity measurement.
# [10] = pancreatic cancer organoid (with HUVECs and hMSCs)
# [11] = two-dimensionally cultured pancreatic cancer cells
smiles,measurement,setting,value
O=c1[nH]cc(F)c(=O)[nH]1 [5-FU],drug sensitivity (luciferase activity),[1]; [10],lower drug sensitivity
same,drug sensitivity (luciferase activity),[1]; [11],high sensitivity
Nc1ccn([C@@H]2O[C@H](CO)[C@@H](O)C2(F)F)c(=O)n1 [gemcitabine],ABCG2-expressing pancreatic cancer cells after administration,"[2]; cancer organoid transplantation group, administration day 30",Pancreatic cancer cells expressing ABCG2 are confirmed to remain
same,Ki67-positive cells after administration,"[2]; organoid-derived xenograft, 1 month after start of administration once every three days",high incidence of Ki67-positive cells
same,drug sensitivity (luciferase activity),[1]; [10],lower drug sensitivity
same,drug sensitivity (luciferase activity),[1]; [11],high sensitivity
same,residual cancer stem cells in organoid,[3],GFP-positive and Sox9-positive cancer stem cells are confirmed to remain
same,increase in xenograft volume,"[4]; all transplantation groups, e.g. 10 mg/kg once every three days for 30 days, versus non-GEM group",suppressed
same,xenograft regression,[4]; organoid with hMSCs in a large number (High hMSC),exhibited no regression and increased in volume
same,xenograft regression,[4]; organoids of the other groups,exhibited regression
same,drug sensitivity (luciferase activity),[5]; High stroma group (hMSCs and HUVECs with high incidence),even lower sensitivity
same,drug sensitivity (luciferase activity),[5]; lung cancer cell aggregate,high sensitivity
same,drug sensitivity (luciferase activity),[5]; organoid culture groups,lower drug sensitivity
same,drug resistance (tumor size),[6],significantly high drug resistance
same,tumor regression,CFPAC-1 xenograft,tumor regression was found
same,tumor regression,PANC-1 xenograft,tumor regression was found
same,tumor regression,SW1990 xenograft,no tumor regression was found
same,tumor size after discontinuation of administration,[7]; pancreatic cancer organoid transplantation group,increased markedly
same,tumor size after discontinuation of administration,[7]; suspension transplantation group,constant tumor size
same,IC50,PANC-1,700 nM
same,IC50,CFPAC-1,30 nM
same,IC50,SW1990,200 nM
same,drug resistance (luminescence intensity),[8],significantly high drug resistance
same,drug sensitivity (luciferase activity),[9],resistance
